Experimental findings from ChEMBL document CHEMBL1150383, “Synthesis and pharmacological evaluation of peptide-mimetic protease-activated receptor-1 antagonists containing novel heterocyclic scaffolds” (Bioorg Med Chem, 2008) are described below.

Broadly, the IC75 is the concentration needed for an effect of 75%.

Assay [1] has as its target T1, Proteinase-activated receptor 1 (Rattus norvegicus) (UniProt P26824).
T1 sequence (whole entry): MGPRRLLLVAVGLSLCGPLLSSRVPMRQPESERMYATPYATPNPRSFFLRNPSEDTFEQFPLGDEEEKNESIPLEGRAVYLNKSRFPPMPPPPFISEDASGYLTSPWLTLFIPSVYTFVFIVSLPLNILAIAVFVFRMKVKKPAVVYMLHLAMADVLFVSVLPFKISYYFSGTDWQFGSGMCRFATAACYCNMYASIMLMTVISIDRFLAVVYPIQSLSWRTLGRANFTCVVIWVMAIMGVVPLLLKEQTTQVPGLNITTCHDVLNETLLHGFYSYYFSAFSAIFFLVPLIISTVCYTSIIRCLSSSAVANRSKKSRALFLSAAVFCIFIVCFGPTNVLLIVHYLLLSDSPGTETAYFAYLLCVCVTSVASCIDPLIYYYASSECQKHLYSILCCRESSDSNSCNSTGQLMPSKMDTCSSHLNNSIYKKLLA
As to the kind of experiment: Antagonist activity at PAR1 receptor assessed as reduction of PAR1AP-induced aortic ring contraction in Wistar rat at 10 to 100 uM after 15 mins. In kind it is functional.

The target in assay [2] is T2, Proteinase-activated receptor 1 (Homo sapiens) (UniProt P25116).
T2 sequence (whole entry): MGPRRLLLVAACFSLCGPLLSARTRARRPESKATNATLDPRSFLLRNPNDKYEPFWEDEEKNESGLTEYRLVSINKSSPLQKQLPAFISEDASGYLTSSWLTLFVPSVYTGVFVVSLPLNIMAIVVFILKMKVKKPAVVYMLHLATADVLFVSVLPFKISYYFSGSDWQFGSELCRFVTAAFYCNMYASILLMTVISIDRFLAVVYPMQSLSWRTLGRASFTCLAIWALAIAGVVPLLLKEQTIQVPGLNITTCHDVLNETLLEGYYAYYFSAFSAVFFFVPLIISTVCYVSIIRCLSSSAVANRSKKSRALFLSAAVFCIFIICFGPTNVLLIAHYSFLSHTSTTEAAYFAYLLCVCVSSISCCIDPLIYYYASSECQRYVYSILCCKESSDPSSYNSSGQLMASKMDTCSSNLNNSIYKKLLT
In words: Antagonist activity at PAR1 receptor assessed as inhibition of PAR1AP-induced platelet aggregation in human blood after 10 mins by chronolog dual channel aggregometry. In kind it is functional.

Calls of active or inactive are those of the source. No cut-off for these calls is given here.

With `Cc1c(CN2CCCC2)c2cc(NC(=O)N[C@@H](Cc3ccc4ccccc4c3)C(=O)N[C@@H](CCCNC(=N)N)C(=O)NCc3ccccc3)ccc2n1Cc1c(Cl)cccc1Cl`, the outcome in assay [1] and in assay [2] was inactive.
For `COc1ccc(C[C@H](NC(=O)Nc2ccc3c(CN4CCCC4)cn(Cc4c(Cl)cccc4Cl)c3c2)C(=O)N[C@@H](CCCNC(=N)N)C(=O)NCc2ccccc2)cc1`, the Activity in assay [1] amounted to 94 dyn/mg. In addition, the IC75 in assay [2] was 100 nM.
In the same order, the values of `COc1ccc(C[C@H](NC(=O)Nc2ccc3c(CN4CCCC4)c(C)n(Cc4c(Cl)cccc4Cl)c3c2)C(=O)N[C@@H](CCCNC(=N)N)C(=O)NCc2ccccc2)cc1` are “Active” and 20 nM.
Regarding `Cc1c(CN2CCCC2)c2cc(NC(=O)N[C@@H](Cc3ccc(F)c(F)c3)C(=O)N[C@@H](CCCNC(=N)N)C(=O)NCc3ccccc3)ccc2n1Cc1c(Cl)cccc1Cl`, the result in assay [1] and in assay [2] was inactive.
Regarding `Cc1c(CN2CCCC2)c2ccc(NC(=O)N[C@@H](Cc3ccc(F)c(F)c3)C(=O)N[C@@H](CCCNC(=N)N)C(=O)NCc3ccccc3)cc2n1Cc1c(Cl)cccc1Cl`, the Activity in assay [1] worked out at 31 dyn/mg. Besides, the IC75 in assay [2] was determined as 50 nM.
`Cc1c(CN2CCCC2)c2cc(NC(=O)N[C@@H](Cc3cccc4ccccc34)C(=O)N[C@@H](CCCNC(=N)N)C(=O)NCc3ccccc3)ccc2n1Cc1c(Cl)cccc1Cl`: the result in assay [1] and in assay [2] was inactive.
On to `COc1ccc(C[C@H](NC(=O)Nc2ccc3c(c2)c(CN2CCCC2)c(C)n3Cc2c(Cl)cccc2Cl)C(=O)N[C@@H](CCCNC(=N)N)C(=O)NCc2ccccc2)cc1`, for which the result in assay [1] and in assay [2] was inactive.
Take `Cc1c(CN2CCCC2)c2ccc(NC(=O)N[C@@H](Cc3ccc4ccccc4c3)C(=O)N[C@@H](CCCNC(=N)N)C(=O)NCc3ccccc3)cc2n1Cc1c(Cl)cccc1Cl`: the result in assay [1] was Active. The IC75 in assay [2] amounted to 800 nM.
